Data: patent EP4371556B1, “ANGIOTENSIN(1-7) PHARMACEUTICAL COMPOSITIONS FOR INHALATION” (Explicat Pharma GmbH, priority 2022, dated 2026)

Experiment: Phase solubility analysis (Higuchi-Connors plot) with HPβCD
Format: physicochemical
Details: different concentrations of HPβCD in isotonic saline solutions
From the text: In an attempt to solubilize the peptide, the effect of cyclodextrins was investigated. In particular, HPβCD, a cyclodextrin presented as preferable in most of the literature described above and used in composition for inhalation by Magalhães et al., was selected for testing. […] The skilled person is familiar with Higuchi-Connors plots and how to obtain them, as described, e.g., in Higuchi T. and Connors, Advances in Analytical Chemistry and Instrumentation, 1965, 177-212.

In the case of `CC[C@H](C)[C@H](NC(=O)[C@H](Cc1ccc(O)cc1)NC(=O)[C@@H](NC(=O)[C@H](CCCNC(=N)N)NC(=O)[C@@H](N)CC(=O)O)C(C)C)C(=O)N[C@@H](Cc1c[nH]cn1)C(=O)N1CCC[C@H]1C(=O)O` [AT1-7, Asp-Arg-Val-Tyr-Ile-His-Pro], the “solubilising effect of HPβCD on AT1-7” value was “substantially no solubilising effect”.
